Test results taken from ChEMBL document CHEMBL1201862, “PubChem BioAssay data set” (2004).
Active and inactive are the calls of the source.

Tests used:
[1] = microbe, parasite or virus in culture; format: functional; conditions: Mycobacterium tuberculosis
[2] = growth suppression of PTEN-null colon cells, dose response, cell-based, HCT116 PTEN knockout (AID 1047); format: functional;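 also: HCT116 colon tumor cells with PTEN knocked out; cells exposed to compound for 60 hours before readout; potency for loss of cell viability measured by luminescence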
[3] = growth suppression of beta-catenin-knockout colon cells, dose response, cell-based, HCT116, human colon tumor (AID 1045); format: functional;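 also: HCT116 colon tumor cells with beta catenin knocked out; cells exposed to compound for 60 hours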
Exodeoxyribonuclease V = Exodeoxyribonuclease V (Escherichia coli (strain K12), UniProt P04993+P07648+P08394); experiment: E. coli RecBCD inhibitors, dose response, counter-screen for AddAB inhibitor project, absorbance, V66 E. coli, mutant T4 phage (AID 492957); format: functional, cell-based, Escherichia coli str. K-12 substr. MG1655
[4] = Luminescence Cell-Based Dose Retest to Confirm Inhibitors of Cancer Stem Cells. [Related pubchem assays (depositor defined):AID2717, AID2721]; format: functional; conditions: Homo sapiens
Beta-galactosidase = Beta-galactosidase (Escherichia coli, UniProt Q8VNN2); experiment: beta-galactosidase enzyme inhibitors and activators, dose response, artefact control for CCR6 antagonist project, biochemical, E. coli enzyme, set 3 (AID 504712); format: functional
[5] = Counterscreen for AddAB inhibitors: absorbance-based bacterial cell-based high throughput dose response assay for inhibitors of bacterial viability. [Related pubchem assays (depositor defined):AID435030, AID449728, AID449731, AID488942, AID488955, AID488956]; format: functional
[6] = Shn3 3'UTR reporter inhibitors, dose response, cell-based, Clone20 osteoblasts, firefly luciferase, cherry-picked (AID 624132); format: functional;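 also: firefly luciferase luminescence from reporter carrying the Shn3 3'UTR in osteoblasts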
[7] = HepG2 cell cytotoxicity, dose response, cytotoxicity control for Shn3 inhibitor project, CellTiter-Glo, cherry-picked (AID 624134); format: functional, cell-based
[8] = control 3'UTR Renilla luciferase suppression, dose response, counter-screen for Shn3 inhibitor project, cell-based, Clone20-Shn3RL, cherry-picked (AID 624133); format: functional
[9] = biological target: Sphingosine 1-phosphate receptor 1 (Homo sapiens, UniProt P21453); experiment: Fluorescence-based counterscreen assay for S1P4 agonists: Cell-based dose response high throughput screening assay to identify agonists of the Sphingosine 1-Phosphate Receptor 1 (S1P1). [Related pubchem assays (depositor defined):AID1509, AID1523, AID1801, AID463107, AID463118, AID463119, AID463122, AID463123, AID463129, AID463225, AID504400, AID504460]; format: functional
[10] = biological target: Sphingosine 1-phosphate receptor 4 (Homo sapiens, UniProt O95977); experiment: Fluorescence dose response cell-based high throughput screening assay for agonists of the Sphingosine 1-Phosphate Receptor 4 (S1P4). [Related pubchem assays: 1509 (Primary screen.), 1523 (Confirmation screen in triplicates.)]; format: functional
Cytochrome P450 2C19 = Cytochrome P450 2C19 (Homo sapiens, UniProt P33261); experiment: Cytochrome panel assay with activity outcomes. Panel member name: p450-cyp2c19 Compounds with AC50 equal or less than 10 uM are considered active; format: functional; conditions: read-out: AC50
Cytochrome P450 3A4 = Cytochrome P450 3A4 (Homo sapiens, UniProt P08684);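 also: CYP3A4 tested as one member of a cytochrome P450 panel screen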
Cytochrome P450 3A4, sequence (P08684 whole entry): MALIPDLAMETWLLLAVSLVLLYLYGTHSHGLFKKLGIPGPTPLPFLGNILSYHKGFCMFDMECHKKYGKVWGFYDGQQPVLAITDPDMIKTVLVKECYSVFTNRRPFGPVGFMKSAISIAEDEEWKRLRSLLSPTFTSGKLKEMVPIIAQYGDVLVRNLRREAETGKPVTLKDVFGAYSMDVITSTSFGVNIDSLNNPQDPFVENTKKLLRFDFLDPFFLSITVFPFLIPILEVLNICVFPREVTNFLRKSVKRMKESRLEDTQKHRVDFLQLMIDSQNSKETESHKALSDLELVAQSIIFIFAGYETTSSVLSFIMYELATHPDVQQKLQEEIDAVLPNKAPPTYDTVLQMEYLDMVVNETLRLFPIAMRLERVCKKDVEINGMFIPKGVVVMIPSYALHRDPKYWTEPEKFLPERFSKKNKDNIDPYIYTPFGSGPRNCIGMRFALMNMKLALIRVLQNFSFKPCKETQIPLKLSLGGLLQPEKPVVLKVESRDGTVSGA

Cytochrome P450 2C19, sequence (P33261 whole entry): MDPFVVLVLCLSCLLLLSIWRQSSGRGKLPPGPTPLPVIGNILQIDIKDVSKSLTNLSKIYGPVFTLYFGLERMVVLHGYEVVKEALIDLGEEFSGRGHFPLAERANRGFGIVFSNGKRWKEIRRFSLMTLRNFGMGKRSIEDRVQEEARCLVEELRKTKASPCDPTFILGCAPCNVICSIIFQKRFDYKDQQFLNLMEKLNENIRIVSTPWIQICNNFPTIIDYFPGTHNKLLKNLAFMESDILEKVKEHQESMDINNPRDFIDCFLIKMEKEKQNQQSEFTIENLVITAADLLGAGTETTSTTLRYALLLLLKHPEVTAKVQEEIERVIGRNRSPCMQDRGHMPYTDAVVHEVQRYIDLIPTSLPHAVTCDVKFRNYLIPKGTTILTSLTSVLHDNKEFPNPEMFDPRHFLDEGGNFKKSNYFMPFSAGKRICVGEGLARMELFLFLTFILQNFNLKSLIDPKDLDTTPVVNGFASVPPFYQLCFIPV
Exodeoxyribonuclease V, sequence (P04993 whole entry): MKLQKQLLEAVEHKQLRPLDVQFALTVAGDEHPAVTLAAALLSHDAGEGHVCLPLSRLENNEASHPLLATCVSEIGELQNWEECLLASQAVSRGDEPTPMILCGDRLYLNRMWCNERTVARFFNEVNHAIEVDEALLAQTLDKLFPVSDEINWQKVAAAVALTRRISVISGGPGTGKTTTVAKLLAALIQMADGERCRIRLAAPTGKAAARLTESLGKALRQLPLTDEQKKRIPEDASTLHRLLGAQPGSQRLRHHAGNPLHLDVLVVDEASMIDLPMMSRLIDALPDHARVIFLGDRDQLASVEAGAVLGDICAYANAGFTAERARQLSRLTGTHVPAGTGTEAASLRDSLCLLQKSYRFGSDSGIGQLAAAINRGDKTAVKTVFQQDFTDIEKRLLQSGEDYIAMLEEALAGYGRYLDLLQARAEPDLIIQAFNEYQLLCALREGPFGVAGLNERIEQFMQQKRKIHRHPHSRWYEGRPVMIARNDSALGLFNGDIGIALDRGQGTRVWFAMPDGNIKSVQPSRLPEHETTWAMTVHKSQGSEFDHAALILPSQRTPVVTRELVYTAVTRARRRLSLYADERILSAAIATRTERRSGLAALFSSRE
Exodeoxyribonuclease V, sequence (P07648 whole entry): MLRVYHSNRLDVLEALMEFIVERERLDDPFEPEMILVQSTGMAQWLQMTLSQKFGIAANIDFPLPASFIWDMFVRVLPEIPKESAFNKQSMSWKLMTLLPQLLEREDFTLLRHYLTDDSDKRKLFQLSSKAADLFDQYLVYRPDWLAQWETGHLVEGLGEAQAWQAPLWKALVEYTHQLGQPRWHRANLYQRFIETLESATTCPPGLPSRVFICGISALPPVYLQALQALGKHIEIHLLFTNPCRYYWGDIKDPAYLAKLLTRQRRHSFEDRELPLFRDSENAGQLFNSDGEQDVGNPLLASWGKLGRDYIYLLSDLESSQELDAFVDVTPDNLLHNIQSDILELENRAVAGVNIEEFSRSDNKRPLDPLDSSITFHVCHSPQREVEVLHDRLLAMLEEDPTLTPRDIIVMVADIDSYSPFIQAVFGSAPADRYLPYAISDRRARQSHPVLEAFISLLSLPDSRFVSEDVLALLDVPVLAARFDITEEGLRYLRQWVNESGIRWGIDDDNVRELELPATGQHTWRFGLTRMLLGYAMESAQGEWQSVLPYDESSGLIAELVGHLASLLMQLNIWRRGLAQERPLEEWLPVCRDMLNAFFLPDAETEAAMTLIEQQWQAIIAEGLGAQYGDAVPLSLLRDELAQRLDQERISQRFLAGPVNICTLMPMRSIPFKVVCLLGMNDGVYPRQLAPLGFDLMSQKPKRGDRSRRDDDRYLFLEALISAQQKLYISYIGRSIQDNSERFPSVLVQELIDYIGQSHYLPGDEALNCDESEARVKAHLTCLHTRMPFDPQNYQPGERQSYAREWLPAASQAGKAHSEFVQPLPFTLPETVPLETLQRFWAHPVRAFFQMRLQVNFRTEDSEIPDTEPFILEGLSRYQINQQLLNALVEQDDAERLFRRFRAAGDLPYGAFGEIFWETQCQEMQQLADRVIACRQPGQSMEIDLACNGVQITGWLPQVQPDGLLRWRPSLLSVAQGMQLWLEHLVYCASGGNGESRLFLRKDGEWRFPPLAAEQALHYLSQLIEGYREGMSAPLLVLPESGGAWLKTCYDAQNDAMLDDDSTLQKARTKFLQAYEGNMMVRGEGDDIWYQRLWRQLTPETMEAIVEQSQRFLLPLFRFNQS
Exodeoxyribonuclease V, sequence (P08394 whole entry): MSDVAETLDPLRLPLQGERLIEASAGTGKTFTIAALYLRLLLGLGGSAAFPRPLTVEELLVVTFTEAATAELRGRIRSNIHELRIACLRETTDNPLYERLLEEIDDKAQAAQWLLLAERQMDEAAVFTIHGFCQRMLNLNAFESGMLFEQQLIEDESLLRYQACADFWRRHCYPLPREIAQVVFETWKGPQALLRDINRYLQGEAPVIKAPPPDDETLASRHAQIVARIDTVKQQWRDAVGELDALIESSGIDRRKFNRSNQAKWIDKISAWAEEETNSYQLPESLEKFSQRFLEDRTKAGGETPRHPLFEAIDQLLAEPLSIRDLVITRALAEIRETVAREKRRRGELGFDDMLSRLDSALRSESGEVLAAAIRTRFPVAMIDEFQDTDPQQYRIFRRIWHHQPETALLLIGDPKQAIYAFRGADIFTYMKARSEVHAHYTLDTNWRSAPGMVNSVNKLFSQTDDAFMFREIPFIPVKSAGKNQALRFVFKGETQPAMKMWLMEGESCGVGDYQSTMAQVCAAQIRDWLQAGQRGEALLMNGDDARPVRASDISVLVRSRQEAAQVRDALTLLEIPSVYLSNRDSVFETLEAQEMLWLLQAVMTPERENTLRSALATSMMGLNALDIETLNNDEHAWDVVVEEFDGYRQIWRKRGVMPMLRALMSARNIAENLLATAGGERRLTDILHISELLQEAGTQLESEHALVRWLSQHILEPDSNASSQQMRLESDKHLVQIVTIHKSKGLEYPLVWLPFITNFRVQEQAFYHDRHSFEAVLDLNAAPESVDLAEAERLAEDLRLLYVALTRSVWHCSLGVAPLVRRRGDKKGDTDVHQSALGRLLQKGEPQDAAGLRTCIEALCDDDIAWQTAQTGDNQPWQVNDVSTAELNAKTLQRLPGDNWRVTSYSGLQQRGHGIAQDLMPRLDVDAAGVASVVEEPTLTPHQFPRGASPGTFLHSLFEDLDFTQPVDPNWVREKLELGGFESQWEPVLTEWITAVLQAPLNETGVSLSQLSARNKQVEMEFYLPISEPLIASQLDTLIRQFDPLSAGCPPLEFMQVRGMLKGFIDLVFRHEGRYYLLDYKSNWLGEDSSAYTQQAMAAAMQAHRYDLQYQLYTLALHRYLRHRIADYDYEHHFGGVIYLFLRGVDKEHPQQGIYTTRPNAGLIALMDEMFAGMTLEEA
Sphingosine 1-phosphate receptor 1, sequence (P21453 whole entry): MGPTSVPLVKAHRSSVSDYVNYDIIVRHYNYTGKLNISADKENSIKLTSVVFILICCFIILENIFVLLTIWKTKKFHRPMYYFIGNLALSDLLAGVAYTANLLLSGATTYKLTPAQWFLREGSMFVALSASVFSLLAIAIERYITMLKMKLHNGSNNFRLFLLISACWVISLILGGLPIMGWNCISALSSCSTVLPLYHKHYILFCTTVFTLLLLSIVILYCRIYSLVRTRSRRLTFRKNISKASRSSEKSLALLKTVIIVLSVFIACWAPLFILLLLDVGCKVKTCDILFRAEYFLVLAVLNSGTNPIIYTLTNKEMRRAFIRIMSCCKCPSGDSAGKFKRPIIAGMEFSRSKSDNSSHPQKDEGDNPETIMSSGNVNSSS
Sphingosine 1-phosphate receptor 4, sequence (O95977 whole entry): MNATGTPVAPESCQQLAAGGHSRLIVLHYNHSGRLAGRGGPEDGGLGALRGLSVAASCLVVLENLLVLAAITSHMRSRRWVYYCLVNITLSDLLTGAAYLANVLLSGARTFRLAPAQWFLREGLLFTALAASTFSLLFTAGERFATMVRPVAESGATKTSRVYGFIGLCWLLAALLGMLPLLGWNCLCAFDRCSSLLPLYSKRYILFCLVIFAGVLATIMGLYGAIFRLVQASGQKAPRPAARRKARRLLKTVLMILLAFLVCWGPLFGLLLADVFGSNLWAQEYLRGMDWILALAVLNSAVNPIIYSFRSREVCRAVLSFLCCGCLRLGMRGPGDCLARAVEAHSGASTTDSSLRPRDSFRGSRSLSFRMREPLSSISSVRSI

O=C(Nc1ccc([N+](=O)[O-])cc1)Nc1ccc(OC(F)F)c(Cl)c1
CC50 [1]: 2.83 µM (active) | EC50 [2]: 1.37 µM (active) | EC50 [3]: 1.9 µM (active) | IC50 (Exodeoxyribonuclease V): > 119 µM (inactive) | AC50 [4]: 1.22 µM (active) | IC50 (Beta-galactosidase): > 66.6 µM (inactive) | IC50 [5]: > 119 µM (inactive) | AC50 [6]: 3.59 µM (active) | AC50 [7]: 6.24 µM (active) | AC50 [8]: 4.77 µM (active)

COc1ccc(C2CC(c3cccs3)=NN2c2ccccc2)cc1 (centres undefined)
EC50 [9]: 5.45 µM (active) | EC50 [10]: 12.3 µM (not active)

O=C(c1ccco1)N1CCC2(CC1)CCN(c1ccccn1)CC2
AC50 (Cytochrome P450 2C19): 31.6 µM (inconclusive) | AC50 (Cytochrome P450 3A4): inconclusive
